According to patent US5254801A, “Heterologous dominant conditional lethal gene which is a phosphonate monoester hydrolase and use thereof in plants” (Monsanto Company, priority 1990, dated 1993):

How the values were obtained:
Arabidopsis callus = assay type: cell-based
[1] = Translocation of radiolabelled compound applied to tomato leaves; assay type: in vivo; conditions: tissues analysed after two days
Procedure: The critical tests for a prophytotoxin to be used in negative selection, cell ablation and as a gametocide are that the compound is non-phytotoxic per se but can be hydrolyzed into a phytotoxin by the phosphonate monoester hydrolase protein. The most general and specific method to determine if a protoxin is hydrolyzed to a toxic form of glyphosate is a HPLC assay. The compounds are dissolved at 100 mM concentration in a suitable buffer such as 10 mM TAPS, (N-Tris(hydroxymethyl)methyl-2-aminopropane sulfonic acid) pH 9.0. Triplicate samples (0.1 ml) of the compound are then diluted with 0.9 ml of 10 mM TAPS, pH 9.0 and with 0.9 ml 10 mM TAPS, pH 9.0 plus one unit (1 μmol/min) of enzyme. After 24 hour incubation at 25° C., the samples are injected onto a HPLC column for glyphosate analysis. […] The protoxin and glyphosate are separated on an anion exchange column. the glyphosate is oxidized as it elutes in the presence of bleach and is then derivatized by o-pthaldehyde to a fluorescent derivative which can be quantitatively measured by a fluorescence monitor. […] After two days, the plant is dissected into individual tissues and the amount of protoxin in each tissue determined. […] The tissue samples were then combusted and the amount of radiolabelled compound in each tissue determined by scintillation counting.

[2] = Storage stability of radioactive glyceryl glyphosate; assay type: physicochemical; conditions: radioactive compound stored at -20° C. over a period of 3 months
PG2982 [3] = assay: Growth on glyceryl glyphosate as sole phosphate source; assay type: cell-based, Pseudomonas caryophilli; conditions: strain PG2982; 0.2 mM in DF minimal medium
Procedure: (§1) Bacteria capable of degrading glyphosate are known (Hallas et al., 1988; Malik et al., 1989; and Moore et al., 1983; Heitkamp et al., 1990). Five of these bacteria (PG2482, LBAA, T10, T12 and CP4) and four strains of E. coli were screened for the rapid degradation of glyceryl glyphosate into inorganic phosphate. The bacteria were inoculated into 2 ml Dworkin-Foster(DF) minimal medium containing glucose, sodium gluconate and potassium citrate (each 0.1%) as carbon source and containing 0.2 mM glyceryl glyphosate as a phosphate source. The Dworkin-Foster minimal medium was made by combining 1 liter sterile H2 O with 1 ml each of A, B, C, E and F, 10 ml D, C-sources to final concentration of 0.1% each and P-source to 0.2 mM.
Bacteria which grew in this medium using glyceryl glyphosate as a sole phosphate source had the ability to cleave both the ester and the phosphonate bond to release the free phosphate. For these bacteria to be useful in the present invention, the first step in the mineralization of glyceryl glyphosate needed is the hydrolysis of the phosphonate ester. […] After a three hour incubation period, the cells were pelleted in a microfuge and the supernatant injected onto an HPLC anion exchange column and glyphosate analyzed as described above. […] The pellet extract was then analyzed for glyphosate product as described above. […]

CP4 = assay: as above; assay type: cell-based; conditions: strain CP4; 0.2 mM in DF minimal medium
Procedure: as §1
(§2) Bacteria which grew in this medium using glyceryl glyphosate as a sole phosphate source had the ability to cleave both the ester and the phosphonate bond to release the free phosphate. For these bacteria to be useful in the present invention, the first step in the mineralization of glyceryl glyphosate needed is the hydrolysis of the phosphonate ester. Each of the three bacteria which utilized glyceryl glyphosate as a phosphate source were then assayed for a phosphonate monoester hydrolase activity using an in vivo (3-^14 C-) glyceryl glyphosate assay. A 150 ml culture of each bacteria was grown in DF minimal medium with 0.2 mM HK2 PO4 as a phosphate source in a 500 ml flask, 30° C., with shaking. The bacteria were pelleted by centrifugation at 5,000×g for 10 min and resuspended at 10 mg fresh weight/ml. An assay mix included 50 μl cells plus 10 μl (3-^14 C-) glyceryl glyphosate (10,000 cpm/μl) and kept at 30° C. with shaking. After a three hour incubation period, the cells were pelleted in a microfuge and the supernatant injected onto an HPLC anion exchange column and glyphosate analyzed as described above. The pellet was washed twice with 1 ml 10 mM HEPES, pH 7.0, and resuspended in 25 μl buffer. The cells were lysed with 25 μl quench and the debris pelleted in a microfuge. The pellet extract was then analyzed for glyphosate product as described above. Glyphosate was found in the pellet extracts of these three bacteria indicating the presence of a phosphonate monoester hydrolase activity in these organisms.

[4] = test system: E. coli MM294, JM101, JM101/MPU+, SR200/MPU; assay: as above; assay type: cell-based; conditions: E. coli strains; 0.2 mM in DF minimal medium
Procedure: as §1, §2

LBAA = assay: as above; assay type: cell-based; conditions: strain LBAA; 0.2 mM in DF minimal medium
Procedure: as §1, §2

T10 = assay: as above; assay type: cell-based; conditions: strain T10; 0.2 mM in DF minimal medium
Procedure: as §1, §2

T12 = assay: as above; assay type: cell-based; conditions: strain T12; 0.2 mM in DF minimal medium
Procedure: as §1, §2

PG2982 [5] = assay: In vivo (3-14C-) glyceryl glyphosate hydrolysis assay in whole cells; assay type: cell-based, Pseudomonas caryophilli; conditions: strain PG2982; three hour incubation, 30° C.
Procedure: as §2, with “Glyphosate was found in the pellet extracts of these three bacteria indicating the presence of a phosphonate monoester hydrolase activity in these organisms.” left out

In the case of `O=C(O)CNCP(=O)(O)OCC(O)CO` (stereo not shown) [glyceryl glyphosate, glycine, N-([hydroxy (2,3 dihydroxy propoxy)phosphonyl]methyl)], the Cytotoxicity (Arabidopsis callus) is reported as “relatively non-cytotoxic”, the “Translocation to developing anthers” value [1] is reported as “translocates to developing anthers” and the Storage stability [2] is reported as “unstable”. For the same compound, the “Glyceryl Glyphosate as Phosphate Source” value (PG2982 [3]) was “Yes”, the “Glyceryl Glyphosate as Phosphate Source” value (CP4) was “No” and the “Glyceryl Glyphosate as Phosphate Source” value [4] was “No”. For the same compound, the “Glyceryl Glyphosate as Phosphate Source” value (LBAA) was “Yes”, the “Glyceryl Glyphosate as Phosphate Source” value (T10) was “Yes” and the “Glyceryl Glyphosate as Phosphate Source” value (T12) was “No”. For the same compound, the “In vivo Hydrolysis of Glyceryl Glyphosate into Glyphosate” value (PG2982 [5]) was “Yes”.
